From ChEMBL document CHEMBL4627403, “Development of Selective Steroid Inhibitors for the Glucose-6-phosphate Dehydrogenase from Trypanosoma cruzi” (ACS Med Chem Lett, 2020) come the findings set out here.

Each structure is given as a SMILES string. Calls of active or inactive are those of the source. The rule behind the calls is not given here. Bounds are passed on as bounds.

The subject of one data set is Trypanosoma cruzi. The experiment in a line: Antitrypanosomal activity against Trypanosoma cruzi Y amastigotes infected in rat H9C2 cells assessed as reduction in parasite infection at 20 uM after 72 hrs by Hoechst 33342 staining based fluorescence microscopy. The data set is classed as functional, organism-based.
Conditions: not given
`CC(C)C(=O)O[C@H]1CC[C@@]2(C)[C@@H](CC[C@@H]3[C@@H]2CC[C@]2(C)C(=O)CC[C@@H]32)C1`: the result was inactive.

On to `CN1CCN(CCS(=O)(=O)O[C@H]2CC[C@@]3(C)[C@@H](CC[C@@H]4[C@@H]3CC[C@]3(C)C(=O)CC[C@@H]43)C2)CC1`, for which the outcome was inactive.

For `CC(=O)O[C@H]1CC[C@@]2(C)[C@@H](CC[C@@H]3[C@@H]2CC[C@]2(C)C(=O)CC[C@@H]32)C1`, the outcome was inactive.

In the case of `C=CCC(=O)O[C@H]1CC[C@@]2(C)[C@@H](CC[C@@H]3[C@@H]2CC[C@]2(C)C(=O)CC[C@@H]32)C1`, the outcome was inactive.

On to `CO[C@H]1CC[C@@]2(C)[C@@H](CC[C@@H]3[C@@H]2CC[C@]2(C)C(=O)CC[C@@H]32)C1`, for which the outcome was inactive.

A further data set deals with H9c2. As to the kind of experiment: Cytotoxicity against rat H9c2 cells at 20 uM after 72 hrs by Hoechst 33342 staining based fluorescence microscopy. The data set is classed as cell-based. To be noted: h9c2, 72 h.
`CC(C)C(=O)O[C@H]1CC[C@@]2(C)[C@@H](CC[C@@H]3[C@@H]2CC[C@]2(C)C(=O)CC[C@@H]32)C1`: the Activity entry was “Non-Toxic”.

For the compound `CN1CCN(CCS(=O)(=O)O[C@H]2CC[C@@]3(C)[C@@H](CC[C@@H]4[C@@H]3CC[C@]3(C)C(=O)CC[C@@H]43)C2)CC1`, the Activity result is on record as “Non-Toxic”.

Consider `CC(=O)O[C@H]1CC[C@@]2(C)[C@@H](CC[C@@H]3[C@@H]2CC[C@]2(C)C(=O)CC[C@@H]32)C1`, for which the Activity result is on record as “Non-Toxic”.

With `C=CCC(=O)O[C@H]1CC[C@@]2(C)[C@@H](CC[C@@H]3[C@@H]2CC[C@]2(C)C(=O)CC[C@@H]32)C1`, the Activity entry is “Non-Toxic”.

Regarding `CO[C@H]1CC[C@@]2(C)[C@@H](CC[C@@H]3[C@@H]2CC[C@]2(C)C(=O)CC[C@@H]32)C1`, the Activity result is on record as “Non-Toxic”.

Test system in another data set: not listed separately
As to the kind of experiment: Inhibition of recombinant Trypanosoma cruzi G6PDH expressed in Escherichia coli by fluorescence assay.
Conditions: not given
The IC50 is the midpoint of a concentration-inhibition curve. For `C[C@]12CC[C@H](OCCS(=O)(=O)N3CCOCC3)C[C@@H]1CC[C@@H]1[C@@H]2CC[C@]2(C)C(=O)CC[C@@H]12`, the IC50 stood at 20 µM.

Take `C[C@]12CC[C@H](OC(=O)CN3CCOCC3)C[C@@H]1CC[C@@H]1[C@@H]2CC[C@]2(C)C(=O)CC[C@@H]12`: the half-inhibitory concentration (IC50) is 10 µM.

As for `CN1CCN(CC(=O)O[C@H]2CC[C@@]3(C)[C@@H](CC[C@@H]4[C@@H]3CC[C@]3(C)C(=O)CC[C@@H]43)C2)CC1`, the half-inhibitory concentration (IC50) was found to be 10 µM.

Take `CN1CCN(CCC(=O)O[C@H]2CC[C@@]3(C)[C@@H](CC[C@@H]4[C@@H]3CC[C@]3(C)C(=O)CC[C@@H]43)C2)CC1`: the half-maximal inhibitory concentration (IC50) amounted to 10 µM.

On to `C[C@]12CC[C@H](OC(=O)CCN3CCOCC3)C[C@@H]1CC[C@@H]1[C@@H]2CC[C@]2(C)C(=O)CC[C@@H]12`, for which the IC50 is 10 µM.

As for `CC(C)C(=O)O[C@H]1CC[C@@]2(C)[C@@H](CC[C@@H]3[C@@H]2CC[C@]2(C)C(=O)CC[C@@H]32)C1`, the IC50 is more than 3 µM.

Take `CN1CCN(CCS(=O)(=O)O[C@H]2CC[C@@]3(C)[C@@H](CC[C@@H]4[C@@H]3CC[C@]3(C)C(=O)CC[C@@H]43)C2)CC1`: the half-inhibitory concentration (IC50) came out at 5 µM.

For `CC(=O)O[C@H]1CC[C@@]2(C)[C@@H](CC[C@@H]3[C@@H]2CC[C@]2(C)C(=O)CC[C@@H]32)C1`, the half-inhibitory concentration (IC50) was more than 3 µM.

Take `C=CCC(=O)O[C@H]1CC[C@@]2(C)[C@@H](CC[C@@H]3[C@@H]2CC[C@]2(C)C(=O)CC[C@@H]32)C1`: the half-inhibitory concentration (IC50) was more than 3 µM.

For another data set, the target named is Glucose-6-phosphate 1-dehydrogenase (Homo sapiens, UniProt P11413). The experiment in a line: Inhibition of recombinant human G6PDH expressed in Escherichia coli by fluorescence assay.
Glucose-6-phosphate 1-dehydrogenase, sequence (P11413 whole entry): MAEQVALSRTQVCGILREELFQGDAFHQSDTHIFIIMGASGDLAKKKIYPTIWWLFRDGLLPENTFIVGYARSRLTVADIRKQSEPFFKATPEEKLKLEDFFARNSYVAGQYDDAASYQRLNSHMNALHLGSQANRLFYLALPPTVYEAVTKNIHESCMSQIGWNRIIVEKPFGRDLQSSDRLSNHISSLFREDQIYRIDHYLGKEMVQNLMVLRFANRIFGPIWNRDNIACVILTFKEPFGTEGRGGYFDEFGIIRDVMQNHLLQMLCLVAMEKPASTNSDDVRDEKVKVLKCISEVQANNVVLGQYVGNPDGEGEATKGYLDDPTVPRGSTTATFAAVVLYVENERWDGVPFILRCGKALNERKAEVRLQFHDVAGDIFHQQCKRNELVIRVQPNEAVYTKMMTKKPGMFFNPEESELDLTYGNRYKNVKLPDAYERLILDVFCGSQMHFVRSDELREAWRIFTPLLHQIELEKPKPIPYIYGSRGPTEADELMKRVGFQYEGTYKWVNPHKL
Conditions: not given
For `C[C@]12CC[C@H](OC[C@@H](O)CN3CCOCC3)C[C@@H]1CC[C@@H]1[C@@H]2CC[C@]2(C)C(=O)CC[C@@H]12`, the half-inhibitory concentration (IC50) is more than 40 µM.

`CN1CCN(C[C@@H](O)CO[C@H]2CC[C@@]3(C)[C@@H](CC[C@@H]4[C@@H]3CC[C@]3(C)C(=O)CC[C@@H]43)C2)CC1`: the IC50 was more than 40 µM.

For the compound `C[C@]12CC[C@H](OC[C@H](O)CN3CCOCC3)C[C@@H]1CC[C@@H]1[C@@H]2CC[C@]2(C)C(=O)CC[C@@H]12`, the concentration for half-maximal inhibition (IC50) was more than 40 µM.

With `CN1CCN(C[C@H](O)CO[C@H]2CC[C@@]3(C)[C@@H](CC[C@@H]4[C@@H]3CC[C@]3(C)C(=O)CC[C@@H]43)C2)CC1`, the IC50 was more than 40 µM.
